# Measurements reported in patent publication US20190054109A1, “An antiviral composition and a method for application thereof” (ALLA CHEM, LLC, priority 2017, published 2019).
# Where two headings read alike, the source gives them in different places. Marks after values point to notes of the source that are not given here.
# Key:
# gT1b NS5B HCV = conditions: cited from earlier work; for EC50: from hcvdruginfo.ca
# [1] = system: Huh7 human hepatocellular carcinoma cell line; conditions: cited from earlier work
# [2] = system: six HCV genotypes (gT1-gT6); conditions: cited from earlier work
# [3] = from Sofia et al. J. Med. Chem. 2010, cited from earlier work
# [4] = from Sofia et al. J. Med. Chem. 2010, cited from earlier work; remark: listed apart in the source
# [5] = from Sofia et al. J. Med. Chem. 2010, cited from earlier work; remark: listed apart in the source
# physchem = conditions: simulated gi fluid
# Method: (§1) Evaluation of stability in biological matrix for compositions comprising the prodrug of formula 1.1. Initial compositions comprising the prodrug of formula 1.1 (the tested compounds) were prepared with a concentration of 10 mM in DMSO. From said compositions, 100-fold working solutions were prepared with a concentration of 100 μM in a mixture of acetonitrile: water with a volumetric ratio of 1:1.
# The tested composition comprising the prodrug of formula 1.1 in a final concentration of 1 μM was incubated in artificial gastric juice (0.2% NaCl in 0.7% v/v HCl) and artificial intestinal juice (0.05M KH2PO4, pH 6.75). The incubation was performed in a Vortemp56 shaking incubator at 37° C. with stirring at a rate of 300 rev/min. […] The samples were then centrifuged, and the supernatant (150 μl) was sampled for analysis […]. The incubation was performed in two replicates, with each sample measured twice.
# Samples were analyzed using an HPLC-MS/MS technique developed for each tested prodrug, wherein the chromatographic system 1290 Infinity II (Agilent Technologies) was combined with the tandem mass spectrometer QTRAP5500 (AB Sciex). When developing conditions for mass-spectrometric detection, the solutions of tested compounds in a mixture of acetonitrile-water (1:1) with a concentration of 100 ng/ml were injected directly into the mass spectrometer using a syringe pump with electrospray ionization carried out in a positive ion mode. Scanning in a total ion current mode (MS1) allowed us to identify a molecular ion for each compound, and basic product ions were recorded in MS2 mode. Then, to attain maximum sensitivity, the MS/MS technique was optimized in MRM mode. In quantitative chromatogram processing, the most intensive MRM transition was used for the analyte and the internal standard. Separation was carried out by means of linear gradient elution chromatography on a YMC Triart C18 column (50×2 mm, 1.9 μm) in a mobile phase consisting of 0.1% formic acid in water and 0.1% formic acid in acetonitrile. Tolbutamide (Fluka) was used as the internal standard.
# Half-life (T1/2) was found from the kinetics of tested prodrug elimination in an antiviral composition during incubation in a biological matrix. The computations were based on the values of chromatographic peak areas for compounds in test samples normalized to the internal standard signal. From linear dependence of log normalized areas of chromatographic peaks on time, the constant of elimination rate was calculated (k is linear section slope).
# in vitro = conditions: human, plasma
# Method: as §1
# The incubation was performed in a Vortemp56 shaking incubator at 37° C. with stirring at a rate of 300 rev/min. […] The samples were then centrifuged, and the supernatant (150 μl) was sampled for analysis […]. The incubation was performed in two replicates, with each sample measured twice.
# Samples were analyzed using an HPLC-MS/MS technique developed for each tested prodrug, wherein the chromatographic system 1290 Infinity II (Agilent Technologies) was combined with the tandem mass spectrometer QTRAP5500 (AB Sciex). […] Scanning in a total ion current mode (MS1) allowed us to identify a molecular ion for each compound, and basic product ions were recorded in MS2 mode. […] In quantitative chromatogram processing, the most intensive MRM transition was used for the analyte and the internal standard. […]
Compound,EC90 (gT1b NS5B HCV; HCV genotype 1b (gT1b)) [nM],EC50 (gT1b NS5B HCV; HCV genotype 1b (gT1b)) [nM],"EC90 (gT1b NS5B HCV; gT1b HCV, 10% FBS, from Sofia et al. J. Med. Chem. 2010) [nM]","EC50 (gT1b NS5B HCV; gT1b HCV, 10% FBS) [nM]","CC90 ([1]; 10% FBS, from Sofia et al. J. Med. Chem. 2010) [nM]","CC50 ([1]; Huh7, Table 2 marks the value as from Sofia et al.) [nM]",efficiency in clinical trials [2],T1/2 SGF [3] [h],T1/2 SGF ([3]; listed as Sovaldi ®),T1/2 SIF [4] [h],T1/2 SIF ([4]; listed as Sovaldi ®),T1/2 Human plasma [5] [h],T1/2 Human plasma ([5]; listed as Sovaldi ®),"half-life at 1 μM (physchem; T1/2 SGF, artificial gastric juice, 37° C.) [h]",half-life at 1 μM (physchem; pH 6.75) [h],half-life at 1 μM (in vitro) [h]
"CC(C)OC(=O)[C@H](C)N[P@](=O)(OC[C@H]1O[C@@H](n2ccc(=O)[nH]c2=O)[C@](C)(F)[C@@H]1O)Oc1ccccc1 [Sovaldi®, Sofosbuvir]",590,45 to 170,520,45 to 170,> 100000,> 100000,high efficiency,12.7 to 15,22.0* h,> 24,>24* h,> 24,>24* h,–,–,–
"C[C@H](N[P@@](=O)(OC[C@H]1O[C@@H](n2ccc(=O)[nH]c2=O)[C@](C)(F)[C@@H]1O)Oc1ccccc1)C(=O)OC1CCC1 [Prodrug 1.2, cyclobutyl (S)-2-((R)-(((2R,3R,4R,5R)-5-(2,4-dioxo-3,4-dihydropyrimidin-1(2H)-yl)-3-hydroxy-4-methyl-4-fluoro-tetrahydrofuran-2-yl)methoxy)-(phenoxy)-phosphorylamino)-propanoate]",–,–,–,–,–,–,–,–,–,–,–,–,–,12.7 to 15,> 24,> 24
